{"source": "paper PMC6916368", "about": "“Cell‐Based Optimization of Covalent Reversible Ketoamide Inhibitors Bridging the Unprimed to the Primed Site of the Proteasome β5 Subunit” (Chemmedchem, 2019)", "assay_type_in_all_cases": "biochemical", "key": {"[1]": {"biological_target": "T1, β1c subunit of isolated human 20S proteasome (Homo sapiens, UniProt P28072)", "T1 construct": "purchased Enzo Life Sciences", "assay": "Proteasome inhibition assay (20 S Proteasome Assay Kit, Z‐LLE‐AMC)", "settings": "c = 1 µM, n=1; read-out: Inhibition cCP β1", "summary_of_the_method": "(§1)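 Isolated human 20S proteasome (200 ng/well) preincubated 30 min with inhibitor, then 100 μM final Suc-LLVY-AMC (β5c, β5i) or Z-LLE-AMC (β1c) added for 60 min; fluorescence read. Residual activity at 100 nM final (n=3; β5c, β5i) or 1 μM (n=1, incl. β1c). IC50s: technical duplicates, mean of three experiments.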"}, "[2]": {"biological_target": "T2, β5i subunit of isolated human 20S proteasome (Homo sapiens, UniProt P28062)", "T2 construct": "purchased Enzo Life Sciences", "assay": "Proteasome inhibition assay (20 S Proteasome Assay Kit, Suc‐LLVY‐AMC)", "summary_of_the_method": "as §1"}, "[3]": {"biological_target": "T3, β5c subunit of isolated human 20S proteasome (Homo sapiens, UniProt P28074)", "T3 construct": "purchased Enzo Life Sciences", "assay": "Proteasome inhibition assay (20 S Proteasome Assay Kit, Suc‐LLVY‐AMC)", "summary_of_the_method": "as §1"}}}
{"molecule": "Cc1cc(C)c(Oc2ccccc2)cc1NC(=O)C(=O)[C@H](CC(C)C)NC(=O)[C@H](CC(C)C)NC(=O)[C@H](CC(C)C)NC(=O)c1cc(Cl)ccc1Cl", "note": "[Compound 27, 2,5‐Dichloro‐N‐((S)‐1‐(((S)‐1‐(((S)‐1‐((2,4‐dimethyl‐5‐phenoxyphenyl)amino)‐5‐methyl‐1,2‐dioxo‐hexan‐3‐yl)amino)‐4‐methyl‐1‐oxopentan‐2‐yl)amino)‐4‐methyl‐1‐oxopentan‐2‐yl)benzamide]", "values": [{"measurement": "inhibition at 1 µM", "setting": "[1]", "value": -48, "unit": "%"}, {"measurement": "inhibition at 1 µM", "setting": "[2]; c = 1 µM, n=1, read-out: Inhibition iCP β5", "value": 68, "unit": "%"}, {"measurement": "inhibition at 0.1 µM", "setting": "[2]; c=100 nM, read-out: Rel. Inhibition β5i", "value": 58, "unit": "%"}, {"measurement": "IC50", "setting": "[2]; purified proteasome", "value": 96, "unit": "nM"}, {"measurement": "inhibition at 1 µM", "setting": "[3]; c = 1 µM, n=1, read-out: Inhibition cCP β5", "value": 91, "unit": "%"}, {"measurement": "inhibition at 0.1 µM", "setting": "[3]; c=100 nM, read-out: Rel. Inhibition β5c", "value": 83, "unit": "%"}, {"measurement": "IC50", "setting": "[3]; purified proteasome", "value": 23, "unit": "nM"}, {"measurement": "Fold‐IC50 β5i/β5c", "setting": "[3]; selectivity β5c over β5i", "value": 4.2}]}
